Reference: the supplement of paper PMC12370961

Experiments:
Assay in all cases: differential drug sensitivity score (dDSS) relative to sarcoma reference cohort mean DSS (DSS units (0-100 scale difference)); higher = more selective sensitivity than reference sarcomas
Details in all cases: exposure time: 72 h; concentration range: 10-10000 nM
CDS-ZH003 = tested on: CDS-ZH003 (patient-derived CIC-DUX4 sarcoma tumoroid)
Protocol: (§1)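 Drug response profiling of patient-derived Ewing sarcoma and CIC::DUX4 sarcoma tumoroid models (or cells tested directly after isolation from the tumor, 'direct'). The DSS is the normalised AUC (0-100); dDSS is the sample DSS minus the mean DSS of a 34-sarcoma reference cohort profiled in the same lab.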

ES-ZH004 = tested on: ES-ZH004 (patient-derived Ewing sarcoma tumoroid)
Protocol: as §1

ES-ZH007 = tested on: ES-ZH007 (patient-derived Ewing sarcoma tumoroid)
Protocol: as §1

ES-ZH016 direct = tested on: ES-ZH016 direct (Ewing sarcoma cells right after isolation)
Protocol: as §1

ES-ZH002 = tested on: ES-ZH002 (patient-derived Ewing sarcoma tumoroid)
Protocol: as §1

CDS-ZH002 = tested on: CDS-ZH002 (patient-derived CIC-DUX4 sarcoma tumoroid)
Protocol: as §1

ES-ZH016 = tested on: ES-ZH016 (patient-derived Ewing sarcoma tumoroid)
Protocol: as §1

ES-ZH001 = tested on: ES-ZH001 (patient-derived Ewing sarcoma tumoroid)
Protocol: as §1

CDS-ZH001-2 = tested on: CDS-ZH001-2 (patient-derived CIC-DUX4 sarcoma tumoroid)
Protocol: as §1

CDS-ZH002 direct = tested on: CDS-ZH002 direct (CIC-DUX4 sarcoma cells right after isolation)
Protocol: as §1

ES-ZH008 = tested on: ES-ZH008 (patient-derived Ewing sarcoma tumoroid)
Protocol: as §1

CDS-ZH001 = tested on: CDS-ZH001 (patient-derived CIC-DUX4 sarcoma tumoroid)
Protocol: as §1

ES-ZH009 = tested on: ES-ZH009 (patient-derived Ewing sarcoma tumoroid)
Protocol: as §1

SMILES	differential drug sensitivity score (CDS-ZH003)	differential drug sensitivity score (ES-ZH004)	differential drug sensitivity score (ES-ZH007)	differential drug sensitivity score (ES-ZH016 direct)	differential drug sensitivity score (ES-ZH002)	differential drug sensitivity score (CDS-ZH002)	differential drug sensitivity score (ES-ZH016)	differential drug sensitivity score (ES-ZH001)	differential drug sensitivity score (CDS-ZH001-2)	differential drug sensitivity score (CDS-ZH002 direct)	differential drug sensitivity score (ES-ZH008)	differential drug sensitivity score (CDS-ZH001)	differential drug sensitivity score (ES-ZH009)
COc1cc2nccc(Oc3ccc(NC(=O)C4(C(=O)Nc5ccc(F)cc5)CC4)cc3)c2cc1OC [Cabozantinib]	-1.5	5.9	-1	-2.6	3.4	-2.6	-2.4	3.6	-2.6	-2	1.7	-2.6	-1.5
CC(C)C[C@H](NC(=O)[C@H](CCc1ccccc1)NC(=O)CN1CCOCC1)C(=O)N[C@@H](Cc1ccccc1)C(=O)N[C@@H](CC(C)C)C(=O)[C@@]1(C)CO1 [Carfilzomib]	4.4	10.9	12.2	6.8	9.9	0.7	4.3	8.2	6	5.5	4	5.3	10.8
O=NN(CCCl)C(=O)NCCCl [Carmustine]	-1.3	1.6	-1.3	2.1	7.3	-1.2	1.1	2.6	-0.5	-1.2	1.4	-1.3	-1.3
C[C@@H]1COCCN1c1cc(C2([S@](C)(=N)=O)CC2)nc(-c2cc[nH]c3nccc2-3)n1 [Ceralasertib]	-4.4	5.7	3	13.8	12	-0.4	4.5	5.9	0.7	-2.5	9.7	0	2.1
Cc1cc(Nc2ncc(Cl)c(Nc3ccccc3S(=O)(=O)C(C)C)n2)c(OC(C)C)cc1C1CCNCC1 [Ceritinib]	0.3	3.5	3.8	3.7	11.7	0.4	3.4	2.9	7	-0.1	4.9	4.9	2.1
Nc1nc(Cl)nc2c1ncn2[C@@H]1O[C@H](CO)[C@@H](O)[C@@H]1F [Clofarabine]	-4.8	4.8	19	8.4	20.2	-4.3	15.7	17.7	-1.8	-4.3	3.6	-12	3.9
O=C(c1ccc(F)c(F)c1Nc1ccc(I)cc1F)N1CC(O)([C@@H]2CCCCN2)C1 [Cobimetinib]	-6.7	0	-3	-3.5	2.5	-6.7	-3.8	1.4	-5.7	-3.5	-6.2	-5.4	-4.5
C[C@H](NC(=O)CCC(F)(F)F)C(=O)N[C@@H]1C(=O)N(CCO)c2ncccc2-c2ccccc21 [Crenigacestat]	-2.3	5.8	-2.3	1	13.6	-0.2	-2.3	5.8	0.3	-0.6	6.4	-2.3	-2.3
CC1(COc2ccc3c(c2)ncn3-c2ccc3cccc(N4CCC(N)CC4)c3n2)COC1 [Crenolanib]	-4.2	2.9	4	1.2	3.4	-2.3	-1.3	4	1.4	-1.7	-0.6	2.5	2.8
C[C@@H](Oc1cc(-c2cnn(C3CCNCC3)c2)cnc1N)c1c(Cl)ccc(F)c1Cl [Crizotinib]	1.6	-1.9	5.1	4	7.3	-0.9	0	3.1	4.4	-3.4	1.2	2.3	0.5
O=P1(N(CCCl)CCCl)NCCCO1 (centres undefined) [Cyclophosphamide]	-0.3	-0.3	-0.3	-0.3	3.8	-0.3	-0.3	-0.3	-0.3	-0.3	-0.3	1.7	-0.3
Nc1ccn([C@@H]2O[C@H](CO)[C@@H](O)[C@@H]2O)c(=O)n1 [Cytarabine]	0.8	4.4	17	11.6	21.1	1.3	12.5	8.3	3.3	-8.5	22.9	-12.4	-6.1
CC(C)(C)c1nc(-c2cccc(NS(=O)(=O)c3c(F)cccc3F)c2F)c(-c2ccnc(N)n2)s1 [Dabrafenib]	-1.2	-0.7	-1.1	2.3	7.7	-1.2	-1.2	11.1	-1.2	-1.2	0.8	-1.2	3.9
CN(C)/N=N/c1[nH]cnc1C(N)=O [Dacarbazine]	-0.7	0.1	-0.8	-0.8	7.5	-0.8	-0.8	-0.7	-0.7	-0.8	2.8	-0.8	0.9
Cc1c2oc3c(C)ccc(C(=O)N[C@@H]4C(=O)N[C@H](C(C)C)C(=O)N5CCC[C@H]5C(=O)N(C)CC(=O)N(C)[C@@H](C(C)C)C(=O)O[C@@H]4C)c3nc-2c(C(=O)N[C@@H]2C(=O)N[C@H](C(C)C)C(=O)N3CCC[C@H]3C(=O)N(C)CC(=O)N(C)[C@@H](C(C)C)C(=O)O[C@@H]2C)c(N)c1=O [Dactinomycin]	12.7	7.5	8.7	9.9	11.1	11.4	11.8	9.7	11.9	11.9	12.5	12.1	12.8
Cn1c(=O)n(-c2ccc(C(C)(C)C#N)cc2)c2c3cc(-c4cnc5ccccc5c4)ccc3ncc21 [Dactolisib]	3.4	1	1.5	-7.5	5	-0.4	-2.5	3	1.3	1.1	-0.5	3.3	13.6
Cc1nc(Nc2ncc(C(=O)Nc3c(C)cccc3Cl)s2)cc(N2CCN(CCO)CC2)n1 [Dasatinib]	-9.6	-3.6	-6.8	9.3	2.2	-3.2	-10.8	-4.5	-4.6	8.9	-7.5	-11.9	-7
COc1cccc2c1C(=O)c1c(O)c3c(c(O)c1C2=O)C[C@@](O)(C(C)=O)C[C@@H]3O[C@H]1C[C@H](N)[C@H](O)[C@H](C)O1 [Daunorubicin]	0.8	-4.5	-5.2	12.9	21.7	2.8	12.2	9.1	13.2	2.7	3.2	4.9	12.6
Nc1ncn([C@H]2C[C@H](O)[C@@H](CO)O2)c(=O)n1 [Decitabine]	-7	6.4	5.1	13.3	21.4	-1.8	4.4	5.8	1.7	2.2	5.7	0.1	1.3
CCC[C@H](NC(=O)/C(C#N)=C/c1cccc(Br)n1)c1ccccc1 [Degrasyn]	0.7	-1.1	-1.4	-0.2	4.8	-1.1	-0.8	-1.4	-1.4	-1.4	0.7	-1.4	-1.4
CC(C)C[C@H](NC(=O)[C@@H](NC(=O)c1cccc(-c2ccccc2)n1)[C@@H](C)O)B(O)O [Delanzomib]	1.1	2.1	5.7	2.4	9.6	1.2	0	7.9	4.9	6.7	5.7	5.4	5.8
C[C@@H]1C[C@H]2[C@@H]3CCC4=CC(=O)C=C[C@]4(C)[C@@]3(F)[C@@H](O)C[C@]2(C)[C@@]1(O)C(=O)CO [Dexamethasone]	-0.5	-0.5	-0.5	-0.5	-0.5	-0.5	-0.5	-0.5	-0.5	0.6	-0.5	-0.5	-0.5
CCc1cnn2c(NCc3ccc[n+]([O-])c3)cc(N3CCCC[C@H]3CCO)nc12 [Dinaciclib]	14	9.8	9.6	11.6	11.7	12	12.2	9.8	11.5	12.8	6.6	14	13.8
CC(=O)O[C@@]12CO[C@@H]1C[C@H](O)[C@@]1(C)C(=O)[C@H](O)C3=C(C)[C@@H](OC(=O)[C@H](O)[C@@H](NC(=O)OC(C)(C)C)c4ccccc4)C[C@@](O)([C@@H](OC(=O)c4ccccc4)[C@H]21)C3(C)C [Docetaxel]	-20.9	5.9	5.3	17.1	23.8	-3.2	20	24.4	6.8	2	11.4	-0.1	26.8
CN1CCN(c2ccc3nc(-c4c(N)c5c(F)cccc5[nH]c4=O)[nH]c3c2)CC1 [Dovitinib]	-4	-1.9	-3.8	7.6	6.3	-4	-3.2	0.4	1.1	-1.6	1.7	-2.9	1.5
COc1cccc2c1C(=O)c1c(O)c3c(c(O)c1C2=O)C[C@@](O)(C(=O)CO)C[C@@H]3O[C@H]1C[C@H](N)[C@H](O)[C@H](C)O1 [Doxorubicin]	5	-3.3	-10.2	11	20.9	4.7	12.8	6.8	10.6	3.1	-0.7	3.1	15.7
C[C@H](Nc1ncnc2nc[nH]c12)c1cc2cccc(Cl)c2c(=O)n1-c1ccccc1 [Duvelisib]	-1.2	-4.4	-2.7	4.2	1.9	1.2	3.4	-5.6	4.4	0.6	-1.1	4.2	9.1
CN(NC(=O)CC(=O)NN(C)C(=S)c1ccccc1)C(=S)c1ccccc1 [Elesclomol]	-5.7	40.9	28.6	7.7	18.6	-4	-6	0.9	2	-6	6.3	-6	-0.7
